Experimental data from US9522163B2, “Methods of treating hepatitis” (priority 2002, dated 2016).

Tests used:
primary rat hepatocytes = experiment: TNF-α induced apoptosis in rat hepatocytes; format: cell-based; details: exposure to CO
Description: Cells were treated with TNF-α (10 ng/ml) and actinomycin-D (Act-D; 200 ng/ml, Sigma Chemical Co. St. Louis, Mo.) to induce cell death.
Thus, the effects of CO were independent of the cGMP/p38 MAPK pathway. In these experiments, hepatocytes were pre-treated with CO for one hour prior to addition of TNF-α/ActD to the medium.

[1] = test system: LPS/D-Gal-induced liver injury; experiment: LPS/D-Gal acute hepatitis model; format: in vivo, mice
Description: Results discussed above were confirmed using lipopolysaccharide (LPS, also referred to as endotoxin) in place of TNF. […] In mice pretreated with 250 ppm CO, the increase in ALT was reduced by >75%, to 250+/−75 IU/ml. To further characterize the effects observed with CO in this model, serum interleukin-6 was measured, and found to be reduced 65% in animals breathing CO vs air-breathing controls (data not shown). […] Few changes in the markers of inflammation (edema, hemorrhage, neutrophil infiltration) were observed. Architecture was maintained and appeared grossly similar to untreated and CO (in the absence of LPS/D-Gal)-treated mice. Overall, the use of LPS/D-Gal to induce acute hepatitis paralleled and confirmed data generated using TNF/D-Gal treatment.

[2] = test system: TNF-α/D-gal-induced liver injury
Description: Male C57BL/6J ([…], Bar Harbor, Me.), 8-12-wk-old inos^−/− mice and wild type littermates (bred/maintained at the University of Pittsburgh) were used for in vivo experiments.
10 mg/kg subcutaneously (s.c.), Alexis Biochem., San Diego, Calif.) or cobalt protoporphyrin (CoPP, 5 mg/kg, intraperitoneally (i.p.), Frontier Scientific, Logan, Utah). […] Where indicated, acetaminophen (Sigma Chem. Co.; St Louis, Mo.) was administered (500 mg/kg, i.p.).
A CO analyzer (Interscan, Chatsworth, Calif.) was used to measure CO levels continuously in the chamber. CO concentrations were maintained at 250 ppm at all times. Mice were placed in the exposure chamber as required.
Whether HO-1 is protective against acute hepatic failure was investigated. Cobalt protoporphyrin (5 mg/kg, i.p.) was administered to male C57BL/6J mice. Twenty-four hours later, TNF-α/D-gal (0.3 μg/8 mg/mouse, i.p., respectively) was administered to the mice. Serum alanine aminotransferase (ALT) levels in the mice were measured 8 hours after administration of TNF-α/D-gal.
After receiving TNF-α/D-gal, mice were returned to the CO exposure chamber and their serum was analyzed for ALT levels 6-8 hr later.
To generate the data presented in FIGS. 11A-11H, liver samples from mice treated with TNF-α/D-gal in the presence and absence of CO (250 ppm) for 8 hr were sectioned and stained for hematoxylin & eosin (H&E), activated caspase 3 (as indicated by an increase in red intensity), and for TUNEL positive cells (as demarcated by the increased green cellular staining; a marker of cell death). Nuclei stained blue.
L-NIL was administered 2 hr prior to CO. CO-treated animals were then pre-treated (250 ppm) for 1 hr prior to TNF-α/D-gal.
VP was selectively designed to deliver NO directly to the liver. One hour after the initial VP dose, the animals were exposed to CO for 1 hr prior to administration of TNF-α/D-gal (see above). Serum ALT levels were determined 6-8 hr later.
These mice and inos^−/− mice were then administered CoPP. L-NIL was maintained in the water throughout the experiment. Control and inos^−/− mice received normal drinking water. Twenty-four hr after administration of CoPP, TNF-α/D-gal was administered and serum ALT determined 6-8 hr later.

[3] = test system: hemorrhagic shock liver injury; experiment: Murine model of hemorrhagic shock, liver injury; format: in vivo; details: inhaled CO during resuscitation after 2.5 hour shock phase; at 24 hr
iNOS = iNOS protein immunoblot in hepatocytes; format: cell-based; details: TNF-α/ActD 6-8 hr in presence of CO 250 ppm vs TNF-α alone
Description: Western blot analysis was performed on primary hepatocytes in culture or from liver homogenates with antibodies to iNOS (Transduction Laboratories, Lexington, Ky.; 1:1000), HO-1 (Calbiochem; 1:2000), or β-actin (Sigma Chemical; 1:5000). Thirty μg protein in cell culture experiments or 100 μg protein from liver homogenates was loaded per well for SDS-PAGE.
To generate the data in FIG. 8, expression of iNOS protein was evaluated using immunoblotting techniques. Briefly, cell extracts from hepatocytes were treated with TNF-α/ActD for 6-8 hr in the presence and absence of CO (250 ppm). Control cells received air or CO alone.

[4] = pretreated with 250 ppm CO, 8 hours after LPS/D-Gal
[5] = CO 250 ppm for 8 hr, TNF-α/D-gal

## [C-]#[O+] [CO, carbon monoxide]
Primary rat hepatocytes
  TNF-α induced apoptosis: inhibited TNF-α induced apoptosis
[1]; CO and LPS/D-Gal
  Liver histopathology: protected to the same extent
[1]; animals breathing CO, LPS/D-Gal, data not shown
  Serum interleukin-6 reduced vs air-breathing controls: 65%
[1]; [4]
  Reduction of the increase in serum ALT: > 75%
  Serum ALT: 250+/−75 IU/ml
[2]; CO 250 ppm for 8 hr
  TNF-α/D-gal-induced liver damage by H&E staining: markedly reduced
[2]; [5]
  Staining of activated caspase-3 in liver: less staining
  TUNEL positive cells in liver: fewer TUNEL positive cells
[2]; CO 250 ppm, 1 hr pre-treatment and continued, ALT 6-8 hr after TNF-α/D-gal
  Serum ALT lower than in air-exposed mice: 74%
[2]; CO 250 ppm, inos−/− mice and wild type mice treated with L-NIL 5 mg/kg i.p. every two hours
  Protection against liver damage (serum ALT, histopathology) in absence of iNOS function/expression: unable to protect against liver damage
[3]
  Reduction in serum ALT: > 65%
iNOS
  iNOS protein: markedly increased
